Literature values in patent US20070048250A1, “Methods of treating concomitant constipation in a cancer treatment regimen including imexon” (AmpliMed Corporation, priority 2005, published 2007).

Experiments:
[1] = combined with cisplatin, dacarbazine, melphalan, cytarabine, 5-fluorouracil, gemcitabine, or docetaxel; cited from earlier work
cancer patients = conditions: phase I; cited from earlier work
mast cell tumors = conditions: dog, in vivo; cited from earlier work
[2] = test system: human lymphoma, melanoma, and prostate cancer cell lines; conditions: mouse, in vivo; cited from earlier work
transplanted tumors = conditions: in vivo; cited from earlier work
dogs = conditions: numerous studies; cited from earlier work
[3] = test system: fresh human tumor cell lines; conditions: cited from earlier work

SMILES: N=C1NC(=O)N2CC12 (stereo not drawn) [imexon, 4-imino-1,3-diazabicyclo[3.1.0]-hexan-2-one]
- effect of combination [1]: synergistic therapeutic cytotoxic effect
- clinical response (cancer patients): produced objective responses or stabilized neoplastic diseases
- tolerability (cancer patients): well tolerated
- tumor response in dogs with mast cell tumors (mast cell tumors): Objective responses have been observed
- activity against human lymphoma, melanoma, and prostate cancer cell lines in SCID mice [2]: active
- activity against a variety of transplanted tumors in rodents (transplanted tumors): active
- gastrointestinal lesions on pathologic examination (dogs): not shown evidence of gastrointestinal lesions
- activity against fresh human tumor cell lines in clonogenic assay [3]: active
- cytotoxicity to multiple myeloma in the clonogenic assay ([3]; multiple myeloma): selective cytotoxicity
